Source: patent publication US11213495B2, “Method and composition for decreasing the psychotomimetic side effect and addictive disorder of ketamine” (NATIONAL HEALTH RESEARCH INSTITUTES, priority 2016, dated 2022)
“Also recorded” adds a separate entry of the source.

Key:
Assay type in all cases: in vivo
Male ICR mice [1] = assay: Prepulse inhibition test (PPI) of acoustic startle; settings: for PPI: ketamine 30 mg/kg alone
Experimental: The PPI was operated as described in our previous work (Chan et al., 2012a). Briefly, the animals were initially moved from the home cage, weighed, and then placed into the restrainers in the SR-LAB (San Diego Instruments, San Diego, Calif., USA) acoustic startle chambers for 30-min habituation. The test drug (0, 30 and 100 mg/kg) was administered 30 min prior to ketamine (30 mg/kg) or saline injection. After administration of ketamine or saline, the experiment started with a 5-min adaptation period during which the animals were exposed to 67-dB background white noise, and this background noise was continued throughout the session. Then, the following adaptation period startle session began with five initial startle stimuli (120 dB bursts of white noise, 40 ms duration). After the first five initial stimuli, mice received five different trial types: pulse alone trials (120 dB bursts of white noise, 40 ms duration), three prepulse and pulse trials in which 76, 81, or 86 dB white noise bursts (9, 14, and 19 dB above background) of 20 ms duration preceded 120 dB pulse by 100 ms prepulse onset to pulse onset, and no-stimuli trials during which only background noise was applied. Each of these trial types was presented five times in randomized order. The inter trial interval was 7-23 s, and the test lasted 15 min in total. Prepulse inhibition was calculated as the percent inhibition of the startle amplitude evoked by the pulse alone: % PPI=(magnitude on pulse alone trial−magnitude on prepulse+pulse trial/magnitude on pulse alone trial)×100.

Male ICR mice [2] = assay: Loss of righting reflex (LORR)
Experimental: The test drug betaine (0, 300, and 600 mg/kg) or DMG (0, 100 and 300 mg/kg) was administered 30 min prior to the anesthetic doses of ketamine (100 mg/kg). Then, the mice were placed in a clean cage until the righting reflex was lost. They were then placed in the supine position until recovery and the onset and duration of the loss of righting reflex was recorded. Recovery of the righting reflex was defined as the ability to perform three successive rightings.

Male ICR mice [3] = assay: Novel object recognition test (NORT)
Experimental: The novel location recognition test (NLRT) and novel object recognition test (NORT) were examined in a Plexiglas open field box (35×35×30 cm) located in a sound-attenuated room and illuminated with a 20-W light bulb. The novel location and novel object recognition procedure consisted of habituation, training, and retention sessions. Habituation was conducted in two consecutive daily sessions, during which each mouse was allowed to individually explore the box in the absence of objects for 20 min. The animal is then removed from the arena and placed in its home cage. During the sample phase, each animal was placed in the box, and after 5 min, two identical sample objects (A+A) were simultaneously introduced in two corners. Each animal was allowed to explore the objects for 5 min. An animal was considered to explore the object when its head was facing the object at a distance of approximately 1 cm or less between the head and object or when it was touching or sniffing the object. The time spent exploring each object was recorded using stopwatches by an experimenter blind to the treatment condition.
After the sample phase, the mice were immediately returned to their home cages. The novel location recognition test was conducted 30 min after the training session. The animals were returned to the same box as during the sample phase, and one of the two objects was replaced with a novel local corner (A+A′) to test the location-based recognition memory. After 24 hours, novel object recognition test was performed. The mice are allowed to explore the open field with one identical sample object and a novel object to assess the novel object recognition memory (A+B). The animals were allowed to explore the box freely for 5 min, and the time spent exploring each object was recorded as described above. The objects and chambers were cleaned with 70% ethanol after each use. A preference index, a ratio of the amount of time spent exploring the original object or the novel location/object over the total time spent exploring both objects, was used to evaluate recognition memory. […]

Male Sprague-Dawley rats = assay: Ketamine intravenous self-administration (IVSA) under progressive ratio (PR) schedule
Experimental: The dose-dependent effects of betaine and its metabolite DMG on ketamine addiction were evaluated by the intravenous self-administration (IVSA) paradigm under a progressive ratio (PR) schedule. Animals were implanted indwelling catheters flushing of ketamine (0.5 mg/kg/per infusion), termed the training dose, under a FR1 schedule during daily 3-h sessions. After acquisition of stable responding for ketamine (criterion of less than 20% deviation from the mean of the total number of reinforcers earned in three consecutive sessions for each rat), the ketamine reinforcement schedule was changed to FR2 and maintained until responding stabilized at least for 3 days. Then, the PR schedule was conducted. The lever presses required to gain an infusion was determined by: 5×e^(infusion number×0.2)−5 (i.e., 1, 2, 4, 6, 9, […], 15, 20, 25, 32, etc). […] The dose-dependent effects of betaine of self-administration of various doses of ketamine ([…]) were assessed by pretreatment 30 min prior to their daily operant session using a within-subject Latin square design.

Male ICR mice [4] = assay: Forced swim test (FST): duration of immobility, struggling and swimming; settings: for duration of struggling in FST: betaine 20 mg/kg prior to ketamine 10 mg/kg
[5] = betaine 300 and 600 mg/kg 30 min prior to ketamine 100 mg/kg

| Structure (SMILES) | PPI (Male ICR mice [1]) | PPI (Male ICR mice [1]; listed as Ketamine) | loss of righting reflex (Male ICR mice [2]; ketamine 100 mg/kg i.p. (anesthetic dose)) | recognition index (Male ICR mice [3]; ketamine 30 mg/kg, retention session (24 h)) | ketamine consumption over the dose-response curve (Male Sprague-Dawley rats; ketamine 0.1-0.5 mg/kg/infusion, control (vehicle-treated) animals) | ketamine-induced disruption of PPI (Male ICR mice [1]; betaine 100 mg/kg pretreatment, ketamine 30 mg/kg) | reduction of PPI (Male ICR mice [1]; betaine prior to saline) | duration of ketamine-induced loss of righting reflex (Male ICR mice [2]; [5]) | onset of ketamine-induced loss of righting reflex (Male ICR mice [2]; [5]) | duration of struggling in FST (Male ICR mice [4]; day 1 test session, vs control) | duration of struggling in FST (Male ICR mice [4]; over both sessions) | duration of swimming in FST (Male ICR mice [4]; betaine 10, 20 and 30 mg/kg pretreatment prior to ketamine 10 mg/kg, day 1 test session, vs control) | duration of swimming in FST (Male ICR mice [4]; betaine 10, 20 and 30 mg/kg pretreatment prior to ketamine 10 mg/kg, over both sessions) | duration of swimming in FST (Male ICR mice [4]; betaine 20 and 30 mg/kg, over both sessions) | recognition impairing effects of ketamine (Male ICR mice [3]; betaine 30 and 100 mg/kg 30 min prior to ketamine 30 mg/kg, retention session) | reduction of ketamine IVSA (Male Sprague-Dawley rats; betaine 100 mg/kg pretreatment, PR schedule) | IVSA of ketamine (Male Sprague-Dawley rats; betaine pretreatment (30 and 100 mg/kg), ketamine 0.1-0.5 mg/kg/infusion, PR schedule) | significant effective dose for reduction of ketamine IVSA (Male Sprague-Dawley rats; betaine pretreatment, PR schedule) [mg/kg] |
| --- | --- | --- | --- | --- | --- | --- | --- | --- | --- | --- | --- | --- | --- | --- | --- | --- | --- | --- |
| CNC1(c2ccccc2Cl)CCCCC1=O (racemic) [ketamine] | reduced | significantly reduced | produced a loss of righting reflex; also recorded: produced LORR | significantly reduced | increase | – | – | – | – | – | – | – | – | – | – | – | – | – |
| C[N+](C)(C)CC(=O)O [betaine] | – | – | – | – | – | significantly attenuated | did not | did not affect | did not affect | significantly increased | significantly increased | significantly increased | significantly increased | significantly increased | significantly reversed | 3-5 times | dose-dependently reduced | 30 |
